This is an account of results in the NIST ThermoML archive (doi:10.1021/acs.jced.9b00794).

The conditions of the data set: 100 kPa, Liquid, Vibrating tube method.

A word on the mass density: it is the mass of a sample divided by its volume.

The structures appear in SMILES notation. ± gives the expanded uncertainty stated by the source.

Turning to `NC=O` [formamide], the mass density (288.15 K) is 1137.91 ± 0.11 kg/m3; the mass density (298.15 K) was determined as 1129.49 ± 0.11 kg/m3; the mass density (308.15 K) was determined as 1121.04 ± 0.11 kg/m3; the mass density (318.15 K) amounted to 1112.55 ± 0.1 kg/m3; the mass density (328.15 K) amounted to 1104.04 ± 0.1 kg/m3.

On to `O` [water], for which the mass density (328.15 K) was found to be 985.69 ± 0.05 kg/m3.
